Experiments:
[1] = test system: MTAP^DEL and KRAS^G12D pancreatic tumor xenograft SU8686 model; assay: MRTX1719 + KRAS G12D inhibitor combination study, SU8686 xenograft; type: in vivo, nu/nu mice; settings: for Tumor volume: MRTX1133 30 mg/kg BID IP, n=5/group, method gives mm^3
Description: (§1) Immunodeficient female mice were implanted with human cancer models harboring homozygous deletion of the MTAP gene (MTAP^DEL) and a KRAS^G12D mutation. Mouse health was monitored daily, and caliper measurements began when tumors were palpable. Tumor volume measurements were determined utilizing the formula 0.5×L×W2 in which L refers to length and W refers to width of each tumor. When tumors reached approximately 200-300 mm^3, animals were randomized to receive A) vehicle, B) a PRMT5 inhibitor administered orally (PO) formulated in 0.5% methylcellulose (4000 cps)/0.2% Tween80 in water, C) KRAS G12D inhibitor administered via intraperitoneal injection (IP) formulated in 10% Captisol in 50 mM Citrate buffer pH 5.0, or D) the PRMT5 inhibitor and KRAS G12D inhibitor. Tumor volumes were measured twice a week (n=5/treatment group). Tumor Growth Inhibition (% TGI) was calculated when the average final treated tumor volume was greater than initial treated tumor volume using the formula: (1-(Final Drug Treated Tumor Volume—Initial Drug Treated Tumor Volume)/(Final Vehicle Treated Tumor Volume -Initial Vehicle Treated Tumor Volume))*100. Percent Regression (% Regression) was calculated when the average tumor volume of final treated tumors was less than initial treated tumor volume using the formula: (−100%)*(1−((Final treated tumor volume)/(Initial treated tumor volume)).
(§2) This example was conducted in immunodeficient female nu/nu mice that were implanted with 5×10^6 SU8686 pancreatic cancer cells in 50% Matrigel. according to the study procedure described above. The PRMT5 inhibitor was MRTX1719 administered at 100 mg/kg once a day (QD). MRTX1719 used is as described herein.
(§3) The KRAS^G12D inhibitor used in this example was MRTX1133 administered at 30 mg/kg twice a day (BID). MRTX1133 used is as described herein.

[2] = test system: MTAP^DEL and KRAS^G12D pancreatic tumor xenograft KP4 model; assay: MRTX1719 + KRAS G12D inhibitor combination study, KP4 xenograft; type: in vivo, nu/nu mice; settings: MRTX1133 30 mg/kg BID IP; for Tumor volume: n=5/group, method gives mm^3, in mm³; for % TGI (Tumor Growth Inhibition): final vs initial treated tumor volume relative to vehicle, MRTX1719 100 mg/kg QD PO
Description: as §1
as §2, with “5×10^6 KP4” for “5×10^6 SU8686”, “is a” for “is as”
as §3

[3] = Study Day 2, MRTX1719 100 mg/kg QD PO
[4] = Study Day 7, MRTX1719 100 mg/kg QD PO
[5] = Study Day 9, MRTX1719 100 mg/kg QD PO
[6] = Study Day 13, MRTX1719 100 mg/kg QD PO
[7] = Study Day 16, MRTX1719 100 mg/kg QD PO
[8] = Study Day 20, MRTX1719 100 mg/kg QD PO
[9] = Study Day 23, MRTX1719 100 mg/kg QD PO
[10] = Study Day 28, MRTX1719 100 mg/kg QD PO
[11] = Study Day 31, MRTX1719 100 mg/kg QD PO
[12] = Study Day 34, MRTX1719 100 mg/kg QD PO
[13] = Study Day 37, MRTX1719 100 mg/kg QD PO
[14] = Study Day 41, MRTX1719 100 mg/kg QD PO
[15] = Study Day 44, MRTX1719 100 mg/kg QD PO
[16] = Study Day −1, MRTX1719 100 mg/kg QD PO
[17] = Study Day 0, MRTX1719 100 mg/kg QD PO
[18] = Study Day 3, MRTX1719 100 mg/kg QD PO
[19] = Study Day 10, MRTX1719 100 mg/kg QD PO
[20] = Study Day 14, MRTX1719 100 mg/kg QD PO
[21] = Study Day 17, MRTX1719 100 mg/kg QD PO
[22] = Study Day 21, MRTX1719 100 mg/kg QD PO
[23] = Study Day 24, MRTX1719 100 mg/kg QD PO

Compound | Tumor volume [1, 3] [mm³] | Tumor volume [1, 4] [mm³] | Tumor volume [1, 5] [mm³] | Tumor volume [1, 6] [mm³] | Tumor volume [1, 7] [mm³] | Tumor volume [1, 8] [mm³] | Tumor volume [1, 9] [mm³] | Tumor volume [1, 10] [mm³] | Tumor volume [1, 11] [mm³] | Tumor volume [1, 12] [mm³] | Tumor volume [1, 13] [mm³] | Tumor volume [1, 14] [mm³] | Tumor volume [1, 15] [mm³] | Tumor volume [1, 16] [mm³] | Tumor volume [2, 17] | Tumor volume [2, 18] | Tumor volume [2, 4] | Tumor volume [2, 19] | Tumor volume [2, 20] | Tumor volume [2, 21] | other results
C#Cc1c(F)ccc2cc(O)cc(-c3ncc4c(N5CC6CCC(C5)N6)nc(OC[C@@]56CCCN5C[C@H](F)C6)nc4c3F)c12 [MRTX1133] | 180 | 143 | 142 | 146 | 145 | 164 | 166 | 151 | 183 | 191 | 209 | 213 | 204 | 212 | 276 | 202 | 132 | 99 | 80 | 91 | % Regression ([1]; final vs initial treated tumor volume, MRTX1133 30 mg/kg BID IP alone or with MRTX1719 100 mg/kg QD PO): −4.2%; Tumor volume [2, 22]: 144; Tumor volume [2, 23]: 250; Tumor volume [2, 10]: 518; Tumor volume [2, 11]: 766; Tumor volume ([2]; Study Day 35, MRTX1719 100 mg/kg QD PO): 1064; % TGI (Tumor Growth Inhibition) [2]: 53.8%
Cn1ncc(-c2ccc3c(=O)[nH]nc(CN)c3c2)c1-c1c(F)c(Cl)cc(OC2CC2)c1C#N [MRTX1719] | 255 | 317 | 369 | 415 | 464 | 467 | 419 | 396 | 373 | 372 | 362 | 356 | 337 | 200 | 277 | 431 | 616 | 716 | 772 | 887 | % TGI (Tumor Growth Inhibition) ([1]; final vs initial treated tumor volume relative to vehicle, MRTX1719 100 mg/kg QD PO): 88.3%; Tumor volume [2, 22]: 1222; Tumor volume [2, 23]: 1487; % TGI (Tumor Growth Inhibition) [2]: 29.1%
